“And” between values parts separate entries of the source, which are not always exact repeats. Equal entries are not always repeated. Where two headings read alike, the source gives them in different places. Marks after values point to notes of the source that are not given here.
Columns and labels:
[1] = randomized n-of-1 dose escalation study: excretion of phospholipids into urine after oral administration; type: in vivo, human; conditions: for Excretion of phospholipids into urine, adj (expected level in healthy subjects subtracted) / Excretion of phospholipids into urine, adj per g dose / Excretion of phospholipids into urine, avg / Excretion of phospholipids into urine, single measurements: within 8 h
Experimental: An randomized n-of-1 dose escalation study was conducted to assess the activity of a clathrate of HP-α-CD and sodium caprate (C-10 fatty acid, capric acid, decanoic acid) in extracting phospholipids from serum into urine.

[2] = randomized blinded n-of-1 PK/PD study: FPLC of morning urine; type: in vivo; conditions: oral intake in the evening
Source text: The substances compared were • HP-α-CD, • the HP-α-CD/sodium caprate clathrate • a mixture of the HP-α-CD clathrate with the same amount of sodium caprate clathrate, also known as C-10 fatty acid, capric acid, decanoic acid. • a mixture of the HP-α-CD clathrate with the oily suspension proposed by (Tuvia S, Pelled D, et al. (2014) Pharmaceutical Research 31:2010-21).
Six samples per substance were taken.
The samples were taken in the evening before bed-time and urine samples were taken
Unexpectedly, however, PA (675) and SM (650) are not reduced and neither are lyso-phospholipids (460-550).

BCa = BCa mice: tumor volume by treatment; type: in vivo; conditions: Day*Treatment effect
[3] = cited from earlier work
BBB = conditions: cited from earlier work
[4] = test system: unesterified cholesterol (UC) storage; conditions: 3-week-old Npc1-/- mice, dorsal neocortex, filipin; cited from earlier work
Caco-2 cells = conditions: Caco-2 cells; cited from earlier work

In the case of “2-hydroxypropyl-α-cyclodextrin [HP-α-CD]”, the “Excretion of phospholipids into urine, adj (expected level in healthy subjects subtracted)” value ([1]; oral dose 18 g) is reported as 1.05 mM, the “Excretion of phospholipids into urine, adj per g dose” value (shortened to “Excretion … per g dose”) ([1]; oral dose 18 g) is reported as 0.06 mM/g and the “Excretion of phospholipids into urine, avg” value (from here on “Excretion … avg”) ([1]; oral dose 18 g) is reported as 3.87 mM. The “Excretion of phospholipids into urine, single measurements” value (from here on “Excretion … single measurements”) ([1]; oral dose 18 g) was 3.8 mM and 3.5 mM and 4.3 mM, the “Excretion of phospholipids into urine, adj (expected level in healthy subjects subtracted)” value ([1]; oral dose 22 g) was 2.11 mM and the “Excretion … per g dose” value ([1]; oral dose 22 g) was 0.10 mM/g. The “Excretion … avg” value ([1]; oral dose 22 g) was 4.93 mM, the “Excretion … single measurements” value ([1]; oral dose 22 g) was 5.2 mM and 4.4 mM and the “Excretion of phospholipids into urine, adj (expected level in healthy subjects subtracted)” value ([1]; oral dose 26 g) was 4.05 mM. The “Excretion … per g dose” value ([1]; oral dose 26 g) was 0.16 mM/g, the “Excretion … avg” value ([1]; oral dose 26 g) was 6.87 mM and the “Excretion … single measurements” value ([1]; oral dose 26 g) was 7.2 mM and 6.3 mM and 7.1 mM. The “Excretion of phospholipids into urine, adj (expected level in healthy subjects subtracted)” value ([1]; oral dose 30 g) was 4.65 mM, the “Excretion … per g dose” value ([1]; oral dose 30 g) was 0.15 mM/g and the “Excretion … avg” value ([1]; oral dose 30 g) was 7.47 mM. The “Excretion … single measurements” value ([1]; oral dose 30 g) was 7.5 mM and 6.8 mM and 8.1 mM, the “Excretion of phospholipids into urine, adj (expected level in healthy subjects subtracted)” value ([1]; oral dose 36 g) was 5.75 mM and the “Excretion … per g dose” value ([1]; oral dose 36 g) was 0.16 mM/g. The “Excretion … avg” value ([1]; oral dose 36 g) was 8.57 mM, the “Excretion … single measurements” value ([1]; oral dose 36 g) was 8.2 mM and 8.8 mM and 8.7 mM and the “Excretion of phospholipids into urine, adj (expected level in healthy subjects subtracted)” value ([1]; oral dose 44 g) was 4.88 mM. For the same substance, the “Excretion … per g dose” value ([1]; oral dose 44 g) was 0.11 mM/g, the “Excretion … avg” value ([1]; oral dose 44 g) was 7.70 mM and the “Excretion … single measurements” value ([1]; oral dose 44 g) was 8.0 mM and 7.6 mM and 7.5 mM. The side effect observed ([1]; oral, only at the highest (44 g) dose) was “softening of stool”, the “recovery of HP-α-CD from morning urine (resorption)” value [2] was “not excreted” and the “Tumor Volume” value (BCa) was “effective”. The Solubility in water ([3]; Table 1) was over 500 g/L, the Solubility in water ([3]; Table 3) was ~500^a g/l and the BBB breakdown (BBB) was 2.5 mM. The “UC storage in brain cells” value [4] was “clearly reduced” and the cytotoxicity (Caco-2 cells) was “less cytotoxic than α-CD”.
